Where two headings read alike, the source gives them in different places.
How the values were obtained:
[1] = molecular target: JAK-2 (Homo sapiens, UniProt O60674); assay: JAK2 inhibition assay; type: biochemical; conditions: 12 μM ATP, 15 μM poly(Glu)4Tyr
[2] = Microsomal stability assay; type: in vitro ADME; conditions: 5 μM compound, 1 mg/mL liver microsome protein, 37° C., species not given
Description: Microsomal stability was monitored by generation of depletion-time profiles in microsomes from a range of species (male CD-1 mouse, male Sprague-Dawley rat, male Beagle dog, male Cynomolgus monkey and pooled mixed gender human). Compound spiking solutions were made up by diluting down the compound stock solution in DMSO (typically 10 mM) to give a solution in acetonitrile (0.5 mM). […].
The reaction was initiated by the addition (250 μL) of the pre-incubated RGS to the pre-incubated microsome/VRT/PB mixture (pre-incubation in both instances was for 10 minutes at 37° C.). Samples were incubated within Eppendorf vials (1.5 ml) on a heater shaker (DPC Micromix 5 (settings; form 20, amplitude 4) modified to be heated, to 37° C., by two plate heaters fixed to the deck and controlled by a Packard Manual Heater) attached to a Multiprobe II HT Ex automated liquid handler. The liquid handler was programmed (WinPREP software) to sample the microsomal incubation mixture after 0, 2, 10, 30 and 60 minutes of incubation and transfer an aliquot (100 μL) to a stop block (96-well block) containing 100 μL of chilled methanol. The % organic in the stop mixture was optimized for analysis by addition of appropriate volumes of aqueous/organic (typically 100 μl of 50:50 methanol:water).
Prior to analysis the stop block was placed on a shaker (DPC Micromix 5; 10 min, form 20, amplitude 5) to precipitate out proteins. The block was then centrifuged (Jouan GR412; 2000 rpm, 15 min, 4° C.). A sample aliquot (200 μL) was then transferred to an analysis block and the block was centrifuged again (Jouan GR412; 2000 rpm, 5 min, 4° C.) prior to being sent for analysis. Depletion profiles were determined by monitoring the disappearance of VRT by liquid chromatography-tandem mass spectrometry (LC-MS/MS). Samples were injected (20 μL; Agilent 1100 liquid chromatographic system equipped with autosampler) onto an analytical column. Mobile phase consisted of Water+0.05% (v/v) formic acid (A) and methanol+0.05% (v/v) formic acid (B).
Running a gradient method optimized for the compound of interest carried out the compound elution from analytical column. The total run time was 6 minutes with a flow rate of 0.35 mL/min. The entire column effluent entered the electrospray ionization source (positive mode) of a Micromass Quattro LC tandem mass spectrometer between 0.5 and 5.9 min of the run. The mass spectrometry was optimized for the compound of interest. All incubations were conducted in duplicate and results were expressed as % parent remaining at either 30 minutes or 60 minutes relative to 0 minutes sample.

[3] = molecular target: Aurora-1 (Aurora B) (Homo sapiens, UniProt Q96GD4); assay: Aurora-1 (Aurora B) inhibition assay (radiometric); type: biochemical
Chain of Aurora-1 (Aurora B) (Q96GD4 whole entry): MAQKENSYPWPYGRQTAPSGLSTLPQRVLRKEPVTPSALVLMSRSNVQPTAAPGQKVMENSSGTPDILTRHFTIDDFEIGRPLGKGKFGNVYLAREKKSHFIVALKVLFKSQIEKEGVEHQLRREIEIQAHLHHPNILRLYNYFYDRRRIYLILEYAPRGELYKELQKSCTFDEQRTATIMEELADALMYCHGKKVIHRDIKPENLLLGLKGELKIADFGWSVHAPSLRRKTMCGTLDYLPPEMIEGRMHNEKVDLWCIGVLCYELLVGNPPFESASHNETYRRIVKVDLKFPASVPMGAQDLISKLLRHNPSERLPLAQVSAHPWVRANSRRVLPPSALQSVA
Description: An assay buffer solution was prepared which consisted of 25 mM HEPES (pH 7.5), 10 mM MgCl2, 0.1% BSA and 10% glycerol. […] To 22 μL of the Aurora-B solution, in a 96-well plate, was added 2 μl of a compound stock solution in DMSO and the mixture allowed to equilibrate for 10 minutes at 25° C. The enzyme reaction was initiated by the addition of 16 μl stock [γ-^33P]-ATP solution (˜20 nCi/μL) prepared in assay buffer, to a final assay concentration of 800 μM. The reaction was stopped after 3 hours by the addition of 16 μL 500 mM phosphoric acid and the levels of ^33P incorporation into the peptide substrate were determined by the following method.
A phosphocellulose 96-well plate (Millipore, Cat no. MAPHNOB50) was pre-treated with 100 μL of a 100 mM phosphoric acid prior to the addition of the enzyme reaction mixture (40 μL). The solution was left to soak on to the phosphocellulose membrane for 30 minutes and the plate subsequently washed four times with 200 μL of a 100 mM phosphoric acid. […] Levels of non-enzyme catalyzed background radioactivity were determined by adding 16 μL of the 500 mM phosphoric acid to control wells, containing all assay components (which acts to denature the enzyme), prior to the addition of the [γ-^33P]-ATP solution. Levels of enzyme catalyzed ^33P incorporation were calculated by subtracting mean background counts from those measured at each inhibitor concentration. […] Ki values were calculated from initial rate data by non-linear regression using the Prism software package (Prism 3.0, Graphpad Software, San Diego, Calif.).

[4] = 800 μM ATP, Kemptide, 25° C., read-out: Aurora B Ki

Chain of JAK-2 (O60674 whole entry, species assumed): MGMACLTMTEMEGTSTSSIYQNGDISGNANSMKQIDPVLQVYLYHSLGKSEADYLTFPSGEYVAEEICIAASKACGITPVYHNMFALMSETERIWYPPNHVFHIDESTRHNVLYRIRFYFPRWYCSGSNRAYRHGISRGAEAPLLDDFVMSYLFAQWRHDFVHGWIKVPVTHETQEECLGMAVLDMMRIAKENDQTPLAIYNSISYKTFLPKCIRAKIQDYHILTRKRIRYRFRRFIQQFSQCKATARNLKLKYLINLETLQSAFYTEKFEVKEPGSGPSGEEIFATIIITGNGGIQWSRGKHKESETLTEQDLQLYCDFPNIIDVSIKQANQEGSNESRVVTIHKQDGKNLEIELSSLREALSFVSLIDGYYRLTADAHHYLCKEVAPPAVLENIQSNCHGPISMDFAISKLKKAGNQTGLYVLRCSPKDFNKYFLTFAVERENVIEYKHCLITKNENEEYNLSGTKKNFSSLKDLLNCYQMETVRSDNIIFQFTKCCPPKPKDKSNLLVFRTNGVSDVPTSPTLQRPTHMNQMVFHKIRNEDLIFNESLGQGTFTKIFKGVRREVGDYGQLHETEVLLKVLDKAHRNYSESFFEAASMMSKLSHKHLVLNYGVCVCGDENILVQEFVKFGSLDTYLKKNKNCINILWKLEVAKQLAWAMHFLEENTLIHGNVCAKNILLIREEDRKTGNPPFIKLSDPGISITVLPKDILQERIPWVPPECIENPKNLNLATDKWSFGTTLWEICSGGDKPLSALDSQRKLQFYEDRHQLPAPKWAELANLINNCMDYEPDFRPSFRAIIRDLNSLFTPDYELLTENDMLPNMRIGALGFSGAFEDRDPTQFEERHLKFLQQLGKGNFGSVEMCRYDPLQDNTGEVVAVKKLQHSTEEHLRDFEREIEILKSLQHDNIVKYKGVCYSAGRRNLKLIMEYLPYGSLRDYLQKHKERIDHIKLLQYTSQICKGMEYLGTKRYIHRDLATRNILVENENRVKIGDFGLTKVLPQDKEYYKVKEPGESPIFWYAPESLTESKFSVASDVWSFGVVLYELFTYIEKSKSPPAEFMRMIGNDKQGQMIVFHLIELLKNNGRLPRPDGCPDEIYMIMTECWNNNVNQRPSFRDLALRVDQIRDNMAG

SMILES	Ki [1]	Microsomal Stability (% remaining after 30 min.) [2]	Ki [3, 4]	Microsomal Stability (% remaining after 60 min.) [2]	Ki [3]
Cc1cc(Nc2cc(N3CCC3)nc(Sc3ccc(NC(=O)c4cccc(Cl)c4)cc3)n2)n[nH]1 [Compound I-12]	46 nM	94%	19 nM	–	–
Cc1cc(Nc2cc(N3CCC3)nc(Sc3ccc(NC(=O)c4ccccc4C)cc3)n2)[nH]n1 [Compound I-5]	190 nM	98%	14 nM	65%	–
COc1ccccc1C(=O)Nc1ccc(Sc2nc(Nc3cc(C)[nH]n3)cc(N3CCC3)n2)cc1 [Compound I-6]	1100 nM	80%	26 nM	–	–
Cc1cc(Nc2cc(N3CCC3)nc(Sc3ccc(NC(=O)c4ccccc4F)cc3)n2)[nH]n1 [Compound I-3]	61 nM	51%	10 nM	66%	–
Cc1cc(Nc2cc(N3CCC3)nc(Sc3ccc(NC(=O)c4ccccc4Cl)cc3)n2)[nH]n1 [Compound I-1, N-{4-[4-Azetidin-1-yl-6-(5-methyl-2H-pyrazol-3-ylamino)-pyrimidin-2-ylsulfanyl]-phenyl}-2-chloro-benzamide]	380 nM	96%	7 nM	79%	–
Cc1cc(Nc2cc(N3CCC3)nc(Sc3ccc(NC(=O)c4c(F)cccc4F)cc3)n2)[nH]n1 [Compound I-2, N-{4-[4-Azetidin-1-yl-6-(5-methyl-2H-pyrazol-3-ylamino)-pyrimidin-2-ylsulfanyl]-phenyl}-2,6-Difluoro-benzamide]	67 nM	107%	6.5 nM	77%	–
Cc1cc(Nc2cc(N3CCC3)nc(Sc3ccc(NC(=O)c4ccccc4OC(F)(F)F)cc3)n2)[nH]n1 [Compound I-8]	1700 nM	100%	11 nM	–	–
Cc1cccc(C(=O)Nc2ccc(Sc3nc(Nc4cc(C)[nH]n4)cc(N4CCC4)n3)cc2)c1 [Compound I-4]	81 nM	76%	–	–	24 nM
Cc1cc(Nc2cc(N3CCC3)nc(Sc3ccc(NC(=O)c4cccc(C(F)(F)F)c4F)cc3)n2)n[nH]1 [Compound I-13]	130 nM	85%	–	74%	6 nM
Cc1cc(Nc2cc(N3CCC3)nc(Sc3ccc(NC(=O)c4c(Cl)cccc4Cl)cc3)n2)n[nH]1 [Compound I-11]	330 nM	–	7 nM	69%	–

Now from value to compound, other results behind:

Ki [1]	Microsomal Stability (% remaining after 30 min.) [2]	Ki [3, 4]	Microsomal Stability (% remaining after 60 min.) [2]	SMILES	Ki [3]
720 nM	103%	4.5 nM	78%	Cc1cc(Nc2cc(N3CCC3)nc(Sc3ccc(NC(=O)c4ccccc4C(F)(F)F)cc3)n2)[nH]n1 [Compound I-14]	–
500 nM	1%	< 6 nM	46%	CCc1cccc(C(=O)Nc2ccc(Sc3nc(Nc4cc(C)[nH]n4)cc(N4CCC4)n3)cc2)c1Cl [Compound I-22]	–
410 nM	109%	19 nM	91%	Cc1cc(Nc2cc(N3CCC3)nc(Sc3ccc(NC(=O)c4ccccc4C(F)F)cc3)n2)[nH]n1 [Compound I-19]	–
410 nM	93%	6 nM	–	O=C(Nc1ccc(Sc2nc(Nc3cc(C4CC4)[nH]n3)cc(N3CCC3)n2)cc1)c1ccccc1Cl [Compound I-17]	–
290 nM	53%	6 nM	–	Cc1cc(Nc2cc(N3CCC3)nc(Sc3ccc(NC(=O)c4cccc(C)c4Cl)cc3)n2)n[nH]1 [Compound I-20]	–
46 nM	73%	7.5 nM	84%	Cc1cc(Nc2cc(N3CCC3)nc(Sc3ccc(NC(=O)c4cccc(Cl)c4F)cc3)n2)n[nH]1 [Compound I-15]	–
600 nM	86%	6.5 nM	–	Cc1cc(Nc2cc(N3CCC3)nc(Sc3ccc(NC(=O)c4cc(Cl)ccc4Cl)cc3)n2)n[nH]1 [Compound I-21]	–
